The source made the active and inactive calls.
Assays:
[1] = target: T1, Alkaline phosphatase, tissue-nonspecific isozyme (Homo sapiens, UniProt P05186); test: TNAP enzyme activators, dose response, selectivity assay for mouse IAP activator project, biochemical, TNAP isozyme, mouse IAP uHTS hits (AID 488880); format: functional
T1 sequence (P05186 whole entry): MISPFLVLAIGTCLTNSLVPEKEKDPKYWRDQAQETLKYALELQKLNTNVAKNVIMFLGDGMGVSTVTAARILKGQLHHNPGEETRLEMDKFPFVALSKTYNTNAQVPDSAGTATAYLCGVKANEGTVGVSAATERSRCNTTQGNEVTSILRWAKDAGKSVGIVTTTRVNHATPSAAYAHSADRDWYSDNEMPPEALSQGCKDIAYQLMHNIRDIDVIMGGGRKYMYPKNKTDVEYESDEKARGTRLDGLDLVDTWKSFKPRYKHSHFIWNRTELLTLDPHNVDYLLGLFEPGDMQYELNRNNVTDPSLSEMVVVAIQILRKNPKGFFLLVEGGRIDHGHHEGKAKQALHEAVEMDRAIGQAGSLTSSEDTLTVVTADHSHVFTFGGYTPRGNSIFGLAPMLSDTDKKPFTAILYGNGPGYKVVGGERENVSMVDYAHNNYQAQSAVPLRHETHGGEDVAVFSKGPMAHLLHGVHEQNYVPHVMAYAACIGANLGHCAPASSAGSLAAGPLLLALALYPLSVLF

[2] = target: Intestinal-type alkaline phosphatase (Homo sapiens, UniProt P09923); test: activation of human intestinal alkaline phosphatase – biochemical, dose response (AID 488873); format: functional
Chain of Intestinal-type alkaline phosphatase (Homo sapiens, UniProt P09923) (P09923 whole entry, the tested form may be a part): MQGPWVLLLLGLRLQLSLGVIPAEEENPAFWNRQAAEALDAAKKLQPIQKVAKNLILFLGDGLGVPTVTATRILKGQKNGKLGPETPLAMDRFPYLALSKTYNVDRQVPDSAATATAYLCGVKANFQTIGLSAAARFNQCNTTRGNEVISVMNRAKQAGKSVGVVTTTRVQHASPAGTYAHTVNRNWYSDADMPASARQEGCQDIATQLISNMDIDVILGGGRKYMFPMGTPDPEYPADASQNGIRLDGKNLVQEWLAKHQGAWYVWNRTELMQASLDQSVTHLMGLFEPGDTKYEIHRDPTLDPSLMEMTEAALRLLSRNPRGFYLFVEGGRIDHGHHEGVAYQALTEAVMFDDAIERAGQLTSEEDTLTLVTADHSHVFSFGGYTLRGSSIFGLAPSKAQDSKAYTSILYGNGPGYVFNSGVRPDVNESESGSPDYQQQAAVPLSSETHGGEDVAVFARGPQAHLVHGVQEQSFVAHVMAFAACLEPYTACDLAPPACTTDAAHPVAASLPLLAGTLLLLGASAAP

[3] = target: T2, RNA-binding protein pos-1 (Caenorhabditis elegans, UniProt G5EF15); test: inhibitors of POS-1/mex-3 RNA binding, dose response, biochemical, fluorescence polarization (AID 1964);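 further: purified POS-1 fused to maltose binding protein made in E. coli; potency of compounds blocking POS-1 binding to fluorescent RNA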
T2 sequence (G5EF15 whole entry): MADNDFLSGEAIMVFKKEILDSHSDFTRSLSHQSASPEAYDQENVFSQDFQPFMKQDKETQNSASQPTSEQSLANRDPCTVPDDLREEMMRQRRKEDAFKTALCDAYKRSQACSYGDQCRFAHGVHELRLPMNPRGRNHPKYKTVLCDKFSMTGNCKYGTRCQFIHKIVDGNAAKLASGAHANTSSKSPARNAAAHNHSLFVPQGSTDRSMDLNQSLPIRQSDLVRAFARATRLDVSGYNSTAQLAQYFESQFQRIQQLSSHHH

[4] = target: T3, Zinc finger protein mex-5 (Caenorhabditis elegans, UniProt Q9XUB2); test: MEX-5/TCR-2 RNA interaction inhibitors, dose response, biochemical, C. elegans, fluorescence polarization (AID 1960)
T3 sequence (Q9XUB2 whole entry): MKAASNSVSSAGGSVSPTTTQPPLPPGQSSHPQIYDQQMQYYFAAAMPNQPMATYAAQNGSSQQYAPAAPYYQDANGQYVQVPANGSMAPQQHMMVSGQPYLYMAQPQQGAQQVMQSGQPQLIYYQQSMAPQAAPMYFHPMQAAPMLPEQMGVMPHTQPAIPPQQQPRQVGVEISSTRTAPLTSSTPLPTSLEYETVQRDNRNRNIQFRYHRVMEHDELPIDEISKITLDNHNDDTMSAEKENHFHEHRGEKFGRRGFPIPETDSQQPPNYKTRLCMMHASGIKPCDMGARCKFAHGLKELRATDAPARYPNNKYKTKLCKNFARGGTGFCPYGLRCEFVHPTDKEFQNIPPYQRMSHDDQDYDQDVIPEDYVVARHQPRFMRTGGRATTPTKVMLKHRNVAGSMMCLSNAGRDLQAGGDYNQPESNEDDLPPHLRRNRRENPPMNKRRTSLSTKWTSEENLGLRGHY

[5] = target: Intestinal-type alkaline phosphatase (Mus musculus, UniProt P24822); test: mouse intestinal alkaline phosphatase activators, dose response, biochemical, luminescence, uHTS hits (AID 488783); format: functional
Chain of Intestinal-type alkaline phosphatase (Mus musculus, UniProt P24822) (P24822 whole entry): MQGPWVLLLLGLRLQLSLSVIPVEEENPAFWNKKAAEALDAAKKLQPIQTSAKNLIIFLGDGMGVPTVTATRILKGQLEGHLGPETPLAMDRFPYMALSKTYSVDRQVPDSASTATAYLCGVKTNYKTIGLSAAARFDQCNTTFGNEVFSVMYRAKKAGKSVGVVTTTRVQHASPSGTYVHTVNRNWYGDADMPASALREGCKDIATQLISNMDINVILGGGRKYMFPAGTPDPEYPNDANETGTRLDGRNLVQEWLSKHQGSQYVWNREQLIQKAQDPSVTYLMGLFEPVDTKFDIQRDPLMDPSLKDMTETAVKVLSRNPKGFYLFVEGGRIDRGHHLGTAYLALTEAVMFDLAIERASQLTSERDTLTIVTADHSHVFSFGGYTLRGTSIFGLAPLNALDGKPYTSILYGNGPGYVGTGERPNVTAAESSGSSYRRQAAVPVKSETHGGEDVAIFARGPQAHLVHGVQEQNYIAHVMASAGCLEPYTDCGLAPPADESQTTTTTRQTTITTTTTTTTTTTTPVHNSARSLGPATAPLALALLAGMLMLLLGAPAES

[6] = target: T4, G-protein coupled receptor 55 (Homo sapiens, UniProt Q9Y2T6); test: GPR55 antagonists blocking LPI-driven arrestin recruitment, primary screen, imaging, U2OS, beta-arrestin-GFP, LPI agonist (AID 2013); format: functional;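 further: antagonist potency measured as reduced agonist-driven arrestin aggregation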
T4 sequence (Q9Y2T6 whole entry): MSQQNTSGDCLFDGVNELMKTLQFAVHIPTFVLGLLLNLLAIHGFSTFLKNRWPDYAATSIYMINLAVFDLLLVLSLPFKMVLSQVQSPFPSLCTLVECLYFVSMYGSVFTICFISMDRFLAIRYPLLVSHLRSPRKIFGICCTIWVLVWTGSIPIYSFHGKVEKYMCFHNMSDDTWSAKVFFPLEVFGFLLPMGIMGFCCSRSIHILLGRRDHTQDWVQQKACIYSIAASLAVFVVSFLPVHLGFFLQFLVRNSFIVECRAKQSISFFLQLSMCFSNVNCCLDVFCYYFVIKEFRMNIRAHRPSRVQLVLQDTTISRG

[7] = target: T5, Cannabinoid receptor 2 (Homo sapiens, UniProt P34972); test: SAR analysis of agonists of the Cannabinoid Receptor 2 using an Image-Based Assay. [Related pubchem assays (depositor defined):AID2013, AID2026]; format: functional
T5 sequence (P34972 whole entry): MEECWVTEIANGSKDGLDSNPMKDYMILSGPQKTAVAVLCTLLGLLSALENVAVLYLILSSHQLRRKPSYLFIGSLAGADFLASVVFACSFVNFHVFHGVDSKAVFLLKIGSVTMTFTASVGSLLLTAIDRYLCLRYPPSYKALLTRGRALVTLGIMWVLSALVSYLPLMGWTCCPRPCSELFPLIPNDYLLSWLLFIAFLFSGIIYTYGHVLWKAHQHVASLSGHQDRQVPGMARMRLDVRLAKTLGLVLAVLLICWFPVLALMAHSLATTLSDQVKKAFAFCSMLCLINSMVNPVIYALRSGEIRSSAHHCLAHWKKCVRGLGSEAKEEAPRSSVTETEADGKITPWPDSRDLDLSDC

[8] = target: T6, Cannabinoid receptor 1 (Homo sapiens, UniProt P21554); test: SAR analysis of agonists of the Cannabinoid Receptor 1 using an Image-Based Assay - Set 2. [Related pubchem assays (depositor defined):AID2013, AID2026]; format: functional
T6 sequence (P21554 whole entry): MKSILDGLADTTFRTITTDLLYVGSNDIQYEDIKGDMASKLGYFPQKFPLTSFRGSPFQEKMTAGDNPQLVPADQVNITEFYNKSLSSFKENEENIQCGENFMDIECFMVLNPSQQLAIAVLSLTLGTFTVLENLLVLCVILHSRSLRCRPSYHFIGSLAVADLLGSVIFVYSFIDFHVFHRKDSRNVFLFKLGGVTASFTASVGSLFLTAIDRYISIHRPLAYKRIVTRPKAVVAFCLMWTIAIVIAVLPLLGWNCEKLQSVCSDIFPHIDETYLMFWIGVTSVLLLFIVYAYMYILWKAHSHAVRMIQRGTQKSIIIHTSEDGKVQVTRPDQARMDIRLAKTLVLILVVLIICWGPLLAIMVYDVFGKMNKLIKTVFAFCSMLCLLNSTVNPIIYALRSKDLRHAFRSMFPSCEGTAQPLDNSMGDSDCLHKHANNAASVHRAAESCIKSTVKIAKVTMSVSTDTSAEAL

[9] = target: T5, Cannabinoid receptor 2; test: SAR analysis of antagonists of the Cannabinoid Receptor 2 using an Image-Based Assay. [Related pubchem assays (depositor defined):AID2013, AID2026]; format: functional
[10] = target: T4, G-protein coupled receptor 55; test: GPR55 antagonist potency of analogs, SAR follow-up, imaging, U2OS, beta-arrestin-GFP, LPI agonist, set 2 (AID 2820); format: functional
[11] = target: T4, G-protein coupled receptor 55; test: SAR Analysis of Selective Antagonists of GPR55 using an Image-Based Assay - Set 4. [Related pubchem assays (depositor defined):AID2013, AID2026]; format: functional
[12] = target: T5, Cannabinoid receptor 2; test: SAR analysis of antagonists of the Cannabinoid Receptor 2 using an Image-Based Assay - Set 3. [Related pubchem assays (depositor defined):AID2013, AID2026]; format: functional
[13] = target: T5, Cannabinoid receptor 2; test: SAR analysis of agonists of the Cannabinoid Receptor 2 using an Image-Based Assay - Set 3. [Related pubchem assays (depositor defined):AID2013, AID2026]; format: functional
[14] = target: T7, G-protein coupled receptor 35 (Homo sapiens, UniProt Q9HC97); test: SAR analysis of Antagonists of the GPR35 Receptor using an Image-Based Assay - Set 3. [Related pubchem assays (depositor defined):AID2013, AID2026]; format: functional
T7 sequence (Q9HC97 whole entry): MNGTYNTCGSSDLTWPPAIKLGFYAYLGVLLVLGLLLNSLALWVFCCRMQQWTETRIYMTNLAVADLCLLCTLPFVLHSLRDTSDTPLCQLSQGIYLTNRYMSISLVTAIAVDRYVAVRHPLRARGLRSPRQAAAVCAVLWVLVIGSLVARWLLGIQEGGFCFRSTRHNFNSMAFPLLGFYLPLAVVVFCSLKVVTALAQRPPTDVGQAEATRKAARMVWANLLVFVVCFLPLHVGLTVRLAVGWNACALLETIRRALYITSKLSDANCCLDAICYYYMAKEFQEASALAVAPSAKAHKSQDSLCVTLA

[15] = target: T6, Cannabinoid receptor 1; test: SAR analysis of antagonists of the Cannabinoid Receptor 1 using an Image-Based Assay - Set 4. [Related pubchem assays (depositor defined):AID2013, AID2026]; format: functional
[16] = target: T7, G-protein coupled receptor 35; test: SAR analysis of Agonists of the GPR35 Receptor using an Image-Based Assay - Set 2. [Related pubchem assays (depositor defined):AID2013, AID2026]; format: functional
[17] = target: T6, Cannabinoid receptor 1; test: SAR analysis of antagonists of the Cannabinoid Receptor 1 using an Image-Based Assay - Set 2. [Related pubchem assays (depositor defined):AID2013, AID2026]; format: functional
[18] = target: SWI/SNF-related matrix-associated actin-dependent regulator of chromatin subfamily A member 2 (Homo sapiens, UniProt P51531); test: Luminescence-based cell-based high throughput dose response assay to identify activators of the function of SWI/SNF related, matrix associated, actin dependent regulator of chromatin, subfamily a, member 2 (SMARCA2, BRM).; format: functional
Chain of SWI/SNF-related matrix-associated actin-dependent regulator of chromatin subfamily A member 2 (P51531 whole entry): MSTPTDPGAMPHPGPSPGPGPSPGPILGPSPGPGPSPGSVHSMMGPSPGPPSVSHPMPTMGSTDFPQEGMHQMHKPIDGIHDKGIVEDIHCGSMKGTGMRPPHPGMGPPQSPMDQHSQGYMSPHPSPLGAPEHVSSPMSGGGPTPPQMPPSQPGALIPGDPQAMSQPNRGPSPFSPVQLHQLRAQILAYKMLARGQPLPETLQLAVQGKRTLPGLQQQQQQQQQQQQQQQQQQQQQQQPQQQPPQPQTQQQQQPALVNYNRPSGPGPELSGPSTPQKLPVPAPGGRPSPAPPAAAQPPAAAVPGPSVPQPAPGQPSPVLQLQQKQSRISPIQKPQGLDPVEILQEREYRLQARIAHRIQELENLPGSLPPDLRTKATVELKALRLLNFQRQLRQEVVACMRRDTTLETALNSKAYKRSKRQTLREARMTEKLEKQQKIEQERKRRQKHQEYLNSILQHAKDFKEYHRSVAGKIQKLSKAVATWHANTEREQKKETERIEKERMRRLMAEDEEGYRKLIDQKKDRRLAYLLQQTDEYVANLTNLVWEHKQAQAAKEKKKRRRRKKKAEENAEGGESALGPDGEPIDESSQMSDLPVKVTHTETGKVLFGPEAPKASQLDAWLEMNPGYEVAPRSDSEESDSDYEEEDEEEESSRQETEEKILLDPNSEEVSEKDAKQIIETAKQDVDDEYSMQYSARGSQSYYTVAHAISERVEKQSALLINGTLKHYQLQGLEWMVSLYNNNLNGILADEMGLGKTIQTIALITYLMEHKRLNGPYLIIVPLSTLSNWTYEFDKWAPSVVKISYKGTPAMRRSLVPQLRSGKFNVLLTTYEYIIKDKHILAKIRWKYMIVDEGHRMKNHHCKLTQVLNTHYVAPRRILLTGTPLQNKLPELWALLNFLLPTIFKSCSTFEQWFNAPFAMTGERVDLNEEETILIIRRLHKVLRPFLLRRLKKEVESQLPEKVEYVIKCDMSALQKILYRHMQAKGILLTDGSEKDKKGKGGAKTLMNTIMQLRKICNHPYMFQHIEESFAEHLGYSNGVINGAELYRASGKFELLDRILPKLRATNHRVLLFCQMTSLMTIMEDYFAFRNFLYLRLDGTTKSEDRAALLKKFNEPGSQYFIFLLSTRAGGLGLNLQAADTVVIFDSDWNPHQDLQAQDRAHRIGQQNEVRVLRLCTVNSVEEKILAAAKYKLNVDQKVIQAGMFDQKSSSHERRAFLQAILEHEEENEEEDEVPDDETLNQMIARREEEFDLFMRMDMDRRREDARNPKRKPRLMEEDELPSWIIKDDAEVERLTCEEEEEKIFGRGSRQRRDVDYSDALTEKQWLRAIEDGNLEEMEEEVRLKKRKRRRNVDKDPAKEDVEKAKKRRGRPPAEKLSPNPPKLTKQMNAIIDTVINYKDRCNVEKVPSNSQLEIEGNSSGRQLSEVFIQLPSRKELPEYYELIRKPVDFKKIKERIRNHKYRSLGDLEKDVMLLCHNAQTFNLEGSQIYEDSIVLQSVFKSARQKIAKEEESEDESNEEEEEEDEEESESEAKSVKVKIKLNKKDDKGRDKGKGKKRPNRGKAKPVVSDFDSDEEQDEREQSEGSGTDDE

[19] = Counterscreen for activators of the function of SWI/SNF related, matrix associated, actin dependent regulator of chromatin, subfamily a, member 2 (SMARCA2, BRM): Luminescence-based cell-based high throughput dose response assay to identify non-selective compounds using the VP16 reporter assay.; format: functional

SMILES | EC50 [1] | EC50 [2] | EC50 [3] | EC50 [4] | EC50 [5] | IC50 [6] | EC50 [7] | EC50 [8] | IC50 [9] | IC50 [10] | IC50 [11] | IC50 [12] | EC50 [13] | IC50 [14] | IC50 [15] | EC50 [16] | IC50 [17] | EC50 [18] | EC50 [19]
Cc1ccc(N2C(=O)/C(=C/c3ccc(CN(CCC#N)S(C)(=O)=O)o3)C(=O)NC2=S)cc1 | 40.4 µM (active) | 36.2 µM (active) | > 300 µM (not active) | 37.8 µM (active) | 80.5 µM (active) | – | – | – | – | – | – | – | – | – | – | – | – | – | –
CCOC(=O)c1cc2c(=O)n3ccccc3nc2n(Cc2ccccc2)c1=N | – | – | – | – | – | < 0.5 µM (active) | > 32 µM (inactive) | > 32 µM (inactive) | > 32 µM (inactive) | 0.878 µM (active) | > 32 µM (inactive) | > 32 µM (inactive) | > 32 µM (inactive) | > 32 µM (inactive) | 0.069 µM (active) | > 32 µM (inactive) | > 32 µM (inactive) | – | –
Cc1ccc2nc3c(cc(C(=O)NCc4ccco4)c(=N)n3C3CCCC3)c(=O)n2c1 | – | – | – | – | – | 3.98 µM (active) | > 32 µM (inactive) | > 32 µM (inactive) | > 32 µM (inactive) | 0.354 µM (active) | – | – | – | > 32 µM (inactive) | – | > 32 µM (inactive) | > 32 µM (inactive) | > 91.2 µM (inactive) | > 91.2 µM (inactive)

Reference: ChEMBL document CHEMBL1201862, “PubChem BioAssay data set” (2004)
